Source: PubChem BioAssay (NCI)
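Cultured in 96-well plates, cells were exposed to test compound for 48 hours across five concentrations. Abbreviation: GI50, concentration required for 50% inhibition of growth. The concentration for full growth arrest is given as TGI.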

Tests used:
Assay in all cases: inhibition of tumour cell growth, NCI panel, 48 h
UACC-257 melanoma = test system: UACC-257 melanoma
OVCAR-8 ovarian = test system: OVCAR-8 ovarian
SF-539 CNS = test system: SF-539 CNS
CCRF-CEM leukemia = test system: CCRF-CEM leukemia
SW-620 colon = test system: SW-620 colon
ACHN renal = test system: ACHN renal
OVCAR-5 ovarian = test system: OVCAR-5 ovarian
M14 melanoma = test system: M14 melanoma
PC-3 prostate = test system: PC-3 prostate
MCF7 breast = test system: MCF7 breast

NC1=NN(c2ccccc2)C(=O)C1/C(=N\NC(=O)c1cc2ccccc2cc1O)C(=O)Nc1nc([N+](=O)[O-])cs1 (stereo not drawn)
TGI (UACC-257 melanoma): 64.4 µM
TGI (OVCAR-8 ovarian): 62.6 µM
TGI (SF-539 CNS): 59.6 µM
TGI (CCRF-CEM leukemia): 59.7 µM
TGI (SW-620 colon): > 82.3 µM
TGI (ACHN renal): > 100 µM
TGI (OVCAR-5 ovarian): > 100 µM
TGI (M14 melanoma): > 95.5 µM

CCCCNC(=O)OCC(COc1ccccc1OC)OC(=O)NCCCC (stereo not drawn)
TGI (UACC-257 melanoma): > 100 µM
TGI (OVCAR-8 ovarian): > 100 µM
TGI (SF-539 CNS): > 100 µM
TGI (CCRF-CEM leukemia): > 100 µM
TGI (SW-620 colon): > 100 µM
TGI (ACHN renal): > 100 µM
TGI (M14 melanoma): > 100 µM

C=CCC(N[C@@H](CO)c1ccccc1)c1ccccn1 (stereo partly drawn)
GI50 (UACC-257 melanoma): 74.8 µM
TGI (UACC-257 melanoma): > 100 µM
GI50 (OVCAR-8 ovarian): > 100 µM
TGI (OVCAR-8 ovarian): > 100 µM
GI50 (SF-539 CNS): > 100 µM
TGI (SF-539 CNS): > 100 µM
GI50 (CCRF-CEM leukemia): 74.4 µM
TGI (CCRF-CEM leukemia): > 100 µM
GI50 (PC-3 prostate): > 100 µM
TGI (PC-3 prostate): > 100 µM
GI50 (SW-620 colon): > 100 µM
TGI (SW-620 colon): > 100 µM
GI50 (ACHN renal): > 100 µM
TGI (ACHN renal): > 100 µM
GI50 (OVCAR-5 ovarian): > 100 µM
TGI (OVCAR-5 ovarian): > 100 µM
GI50 (M14 melanoma): > 100 µM
TGI (M14 melanoma): > 100 µM

CN(C)c1ccc(/C=C/c2ccnc3ccc4ccccc4c23)cc1
TGI (UACC-257 melanoma): > 100 µM
TGI (OVCAR-8 ovarian): > 100 µM
TGI (SF-539 CNS): > 100 µM
TGI (CCRF-CEM leukemia): > 100 µM
TGI (PC-3 prostate): > 100 µM
TGI (SW-620 colon): > 100 µM
TGI (MCF7 breast): > 100 µM
TGI (ACHN renal): 57.3 µM
TGI (M14 melanoma): > 100 µM

O=C1NC2(CCCC2)/C(=N\O)C12CCCC2
TGI (UACC-257 melanoma): > 100 µM
TGI (OVCAR-8 ovarian): > 100 µM
TGI (SF-539 CNS): > 100 µM
TGI (CCRF-CEM leukemia): > 100 µM
TGI (SW-620 colon): > 100 µM
TGI (ACHN renal): > 100 µM
TGI (OVCAR-5 ovarian): > 100 µM
TGI (M14 melanoma): > 100 µM

Clc1ccccc1C1N2CCCCC2[C@@H]2c3[nH]c4ccccc4c3CCN12 (stereo partly drawn)
TGI (UACC-257 melanoma): 42.2 µM
TGI (OVCAR-8 ovarian): 39.9 µM
TGI (SF-539 CNS): 30.9 µM
TGI (CCRF-CEM leukemia): 52.9 µM
TGI (SW-620 colon): 31 µM
TGI (ACHN renal): 45.8 µM
TGI (OVCAR-5 ovarian): 52.7 µM
TGI (M14 melanoma): 31.3 µM

CCc1nc(-n2c(CC)nc3ccccc3c2=O)nc(N)c1-c1ccc(Cl)cc1
GI50 (UACC-257 melanoma): 13 µM
TGI (UACC-257 melanoma): > 94.3 µM
GI50 (OVCAR-8 ovarian): 6.65 µM
TGI (OVCAR-8 ovarian): > 100 µM
GI50 (SF-539 CNS): 30.4 µM
TGI (SF-539 CNS): > 100 µM
GI50 (PC-3 prostate): 5.74 µM
TGI (PC-3 prostate): > 100 µM
GI50 (SW-620 colon): 5.42 µM
TGI (SW-620 colon): > 100 µM
GI50 (MCF7 breast): > 50.9 µM
TGI (MCF7 breast): > 100 µM
GI50 (ACHN renal): > 27.1 µM
TGI (ACHN renal): > 100 µM
GI50 (OVCAR-5 ovarian): 30.9 µM
TGI (OVCAR-5 ovarian): > 100 µM
GI50 (M14 melanoma): 52.6 µM
TGI (M14 melanoma): > 100 µM

O=C(c1ccccn1)c1nc(-c2ccc(Cl)c(Cl)c2)nc2ccc(Cl)cc12
TGI (UACC-257 melanoma): > 100 µM
TGI (OVCAR-8 ovarian): > 100 µM
TGI (SF-539 CNS): 56.4 µM
TGI (CCRF-CEM leukemia): > 100 µM
TGI (SW-620 colon): > 100 µM
TGI (ACHN renal): > 100 µM
TGI (OVCAR-5 ovarian): > 100 µM
TGI (M14 melanoma): > 100 µM

COc1ccc(OC)c(/C=C/C(=O)C(C)(C)C)c1
TGI (OVCAR-8 ovarian): 38 µM
TGI (SF-539 CNS): 38.4 µM
TGI (CCRF-CEM leukemia): 44.5 µM
TGI (SW-620 colon): 38.6 µM
TGI (ACHN renal): 39.7 µM
TGI (M14 melanoma): 30.2 µM

C=CC[N+]1(CCO)CCN=C1CCCCCCCCCCCCC (stereo not drawn)
GI50 (UACC-257 melanoma): 1.76 µM
TGI (UACC-257 melanoma): 3.27 µM
GI50 (PC-3 prostate): 1.37 µM
TGI (PC-3 prostate): 2.85 µM
GI50 (SW-620 colon): 1.63 µM
TGI (SW-620 colon): 2.98 µM
GI50 (MCF7 breast): 1.5 µM
TGI (MCF7 breast): 2.82 µM
GI50 (M14 melanoma): 1.64 µM
TGI (M14 melanoma): 2.99 µM

CN(C)CCNC(=O)c1cccc2ccc(-c3cccnc3)nc12
TGI (UACC-257 melanoma): 15 µM
TGI (OVCAR-8 ovarian): > 100 µM
TGI (SF-539 CNS): 23.7 µM
TGI (CCRF-CEM leukemia): > 100 µM
TGI (SW-620 colon): 27.5 µM
TGI (ACHN renal): 23.2 µM
TGI (OVCAR-5 ovarian): 22.4 µM
TGI (M14 melanoma): 20.7 µM

C/C=C/C(=O)[C@@H](O)C(C)C
TGI (UACC-257 melanoma): > 100 µM
TGI (OVCAR-8 ovarian): > 100 µM
TGI (SW-620 colon): > 100 µM
TGI (ACHN renal): > 100 µM
TGI (OVCAR-5 ovarian): > 100 µM

COc1cc(CNc2nc3cc(N)cc(N)c3nc2-c2ccccc2)cc(OC)c1OC
GI50 (UACC-257 melanoma): 3.45 µM
TGI (UACC-257 melanoma): 10.8 µM
GI50 (OVCAR-8 ovarian): 7 µM
TGI (OVCAR-8 ovarian): 14.8 µM
GI50 (SF-539 CNS): 1.34 µM
TGI (SF-539 CNS): 8.01 µM
GI50 (PC-3 prostate): 2.18 µM
TGI (PC-3 prostate): > 50 µM
GI50 (SW-620 colon): 1.54 µM
TGI (SW-620 colon): 4.51 µM
GI50 (MCF7 breast): 1.55 µM
TGI (MCF7 breast): > 50 µM
GI50 (ACHN renal): 5.33 µM
TGI (ACHN renal): 11.2 µM
GI50 (OVCAR-5 ovarian): 21.5 µM
TGI (OVCAR-5 ovarian): > 50 µM
GI50 (M14 melanoma): 9.52 µM
TGI (M14 melanoma): 18.2 µM

CNS(=O)(=O)c1ccccc1C(=N)c1ccccc1
TGI (OVCAR-8 ovarian): > 100 µM
TGI (SF-539 CNS): > 100 µM
TGI (CCRF-CEM leukemia): > 100 µM
TGI (PC-3 prostate): > 100 µM
TGI (SW-620 colon): > 100 µM
TGI (MCF7 breast): > 100 µM
TGI (ACHN renal): > 100 µM
TGI (OVCAR-5 ovarian): > 100 µM
TGI (M14 melanoma): > 100 µM

C[n+]1c2cc(N)ccc2cc2ccc(N)cc21 (tested in a mixture with another compound)
GI50 (UACC-257 melanoma): 0.337 µM
TGI (UACC-257 melanoma): 2.04 µM
GI50 (OVCAR-8 ovarian): 0.377 µM
TGI (OVCAR-8 ovarian): 2.23 µM
GI50 (SF-539 CNS): 0.498 µM
TGI (SF-539 CNS): 6.22 µM
GI50 (PC-3 prostate): 0.332 µM
TGI (PC-3 prostate): 12.9 µM
GI50 (SW-620 colon): 0.0791 µM
TGI (SW-620 colon): 6.2 µM
GI50 (MCF7 breast): 0.372 µM
TGI (MCF7 breast): 17.9 µM
GI50 (ACHN renal): 0.304 µM
TGI (ACHN renal): 3.59 µM
GI50 (OVCAR-5 ovarian): 0.405 µM
TGI (OVCAR-5 ovarian): 11.1 µM
GI50 (M14 melanoma): 1.04 µM
TGI (M14 melanoma): 5.21 µM

Cc1cc2c(=O)cc(-c3ccc(C(F)(F)F)cc3)oc2c(C(=O)O)c1C
TGI (UACC-257 melanoma): > 100 µM
TGI (OVCAR-8 ovarian): > 100 µM
TGI (SF-539 CNS): > 100 µM
TGI (CCRF-CEM leukemia): > 100 µM
TGI (SW-620 colon): > 100 µM
TGI (ACHN renal): > 100 µM
TGI (OVCAR-5 ovarian): > 100 µM
TGI (M14 melanoma): > 100 µM

COc1cc(-c2nc3ccccc3[nH]2)ccc1OCC(=O)N=Nc1c(O)[nH]c2ccc(Cl)cc12
GI50 (UACC-257 melanoma): 1.91 µM
TGI (UACC-257 melanoma): 3.78 µM
GI50 (SF-539 CNS): 1.69 µM
TGI (SF-539 CNS): 3.1 µM
GI50 (CCRF-CEM leukemia): 0.5 µM
TGI (CCRF-CEM leukemia): 3.56 µM
GI50 (PC-3 prostate): 1.48 µM
TGI (PC-3 prostate): 3.06 µM
GI50 (SW-620 colon): 0.748 µM
TGI (SW-620 colon): 2.42 µM
GI50 (MCF7 breast): 0.57 µM
TGI (MCF7 breast): 2.39 µM
GI50 (ACHN renal): 4.75 µM
TGI (ACHN renal): > 100 µM
GI50 (OVCAR-5 ovarian): 1.97 µM
TGI (OVCAR-5 ovarian): 4.82 µM
GI50 (M14 melanoma): 1.67 µM
TGI (M14 melanoma): 3.65 µM

CCOc1ccccc1NC(=O)C(=O)C(C(=O)c1ccc2ccccc2c1)C1OC(=O)c2ccccc21 (stereo not drawn)
TGI (UACC-257 melanoma): 50.9 µM
TGI (OVCAR-8 ovarian): 38.8 µM
TGI (SF-539 CNS): 24.8 µM
TGI (CCRF-CEM leukemia): 69.1 µM
TGI (SW-620 colon): 33.8 µM
TGI (ACHN renal): > 100 µM
TGI (OVCAR-5 ovarian): 46.1 µM
TGI (M14 melanoma): 36.4 µM

O=C1OCC2=C1C(c1cccc(C(F)(F)F)c1)c1cc3c(cc1N2CCO)OCO3 (stereo not drawn)
GI50 (UACC-257 melanoma): > 50 µM
TGI (UACC-257 melanoma): > 50 µM
GI50 (OVCAR-8 ovarian): 2.51 µM
TGI (OVCAR-8 ovarian): > 50 µM
GI50 (SF-539 CNS): 0.884 µM
TGI (SF-539 CNS): 2.73 µM
GI50 (CCRF-CEM leukemia): 0.955 µM
TGI (CCRF-CEM leukemia): > 50 µM
GI50 (PC-3 prostate): 0.926 µM
TGI (PC-3 prostate): > 50 µM
GI50 (SW-620 colon): 0.84 µM
TGI (SW-620 colon): > 50 µM
GI50 (MCF7 breast): 0.415 µM
TGI (MCF7 breast): > 50 µM
GI50 (ACHN renal): 3.09 µM
TGI (ACHN renal): > 50 µM
GI50 (OVCAR-5 ovarian): 2.19 µM
TGI (OVCAR-5 ovarian): > 50 µM

O=c1c2cc(Br)ccc2nc(-c2ccccc2)n1NCC1(O)OCC(O)C(O)C1O (stereo not drawn)
TGI (UACC-257 melanoma): > 100 µM
TGI (OVCAR-8 ovarian): > 100 µM
TGI (SF-539 CNS): > 100 µM
TGI (CCRF-CEM leukemia): > 100 µM
TGI (SW-620 colon): > 100 µM
TGI (ACHN renal): > 100 µM
TGI (OVCAR-5 ovarian): > 100 µM
TGI (M14 melanoma): > 100 µM
